Read-outs that look alike come from different tables or passages of the source.
Assays:
HPMEC = assay: Cell adhesion assay on cross-linked matrix protein coatings (crystal violet); assay type: cell-based, human; conditions: coating cross-linked with glutaraldehyde or EDC dilution range, 1 hr adhesion; FIG. 5
Experimental: HPMEC were isolated from human placentae obtained with consent and cultured according to previously published methods (Leach et al. (1994) Placenta 15(4): 355-64; Dye et al. (2001) Microvasc Res 62(2): 94-113; Dye et al. (2004) Faseb J 18(1): 125-7). Established cultures are phenotypically stable for typically up to 25 passages at a split ratio of 1:3. Cultures are maintained in standard growth medium (M199+5% PDPDS+2% HIFBS). Cultures were maintained in a humidified 5% CO2 and 37° C. atmosphere. For biocompatibility assessment of scaffolds, harvested cells were resuspended in high growth medium (M199+5% HIBFS). For cell adhesion assays harvested cells were resuspended in M199+0.5% BSA. […]
The well was washed with a sufficient number of washes to reduce residual concentration to below cytotoxic limits (5×100 μl per well) with PBS, replaced with 50 μl/well BSA/NaHCO3 (covalent reagent blocking step) and incubated for 1 hr at 37° C. Washing was performed twice with sterile PBS and the plate was stored with 100 μl/well PBS until the cells were ready.
Accutase was thawed and M199/BSA was prepared. […] The supernatant was aspirated and the cells were resuspended in 1-2 ml M199/BSA as appropriate, titurated, and cell density was counted (1:10 in 4% trypan blue/PBS), aiming for around 2×10^6/ml.
The number of cells required for the assay was calculated using 1-2×10^4 cells/well. […]

[1] = test system: human dermal fibroblast cultures; assay: Toxicity assay, MTS/PMS assay of cell viability; assay type: cell-based
Experimental: Culture medium was aspirated from confluent culture and washed with versene. […] Trypsin was neutralised with an equal volume of growth medium, the cell suspension was transferred to a universal tube. The culture flask was washed with PBS and transferred to the universal tube. Centrifugation was performed at 200×g for 7 minutes. Cells were resuspended in 1-2 ml growth medium.
Cells were seeded (10^5/well) into 24-well plates in 0.5 ml DMEM growth medium/well and incubated at 37° C. in a humidified 5% CO2 incubator, until the cells adhered and spread, typically overnight. A single well blank/plate was retained for a reagent control.
Culture medium was aspirated from cultures and replaced with: a weighed sample of scaffold (20 mg/well) in fresh serum-free DMEM; serum-free DMEM with a range of dilutions of glutaraldehyde or EDC as cross-linking agents. Cells were incubated at 37° C. in humidified 5% CO2 for 1 hr.
The medium and scaffold material was removed from cells and replaced with fresh maintenance medium (DMEM with 2% HIFBS) and returned to the incubator for 2 to 22 hours. Direct toxicity measurements were taken at 2, 14 and 20 hours. For exposure to matrices, incubation was for 20 hrs. The same medium was added to an empty control well for a reagent blank.
Aliquots of MTS & PMS stock solutions were thawed and a working MTS/PMS reagent was prepared (2 ml MTS+100 μl PMS). MTS/PMS reagent was added to all wells (50 μl/well) and returned to the incubator for 2-4 hours, until colour developed in the medium over control cultures without toxic challenge.
100 μl aliquots of medium were transferred to a 96 well ELISA plate for spectrophotometric measurement at 495 nm.
Matrices of 1% fibrin/1% alginate, foamed & lyophilised, were cross-linked with EDC or glutaraldehyde and washed 5 times in glycine or PBS before a second lyophilisation, or not, as indicated. […] pieces of matrix were incubated in wells with confluent fibroblast cultures in serum-free medium for 1 hr to detect leachable toxicity, assessed after 20 hr to check for induction of delayed cell death.

human dermal fibroblasts [2] = assay: MTS assay, acute cytotoxicity; assay type: cell-based; conditions: FIGS. 30 and 31
Experimental: (§1) The MTS assay was used as described hereinbefore with certain modifications.
(§2) Firstly, two modalities were used, (i) acute cytotoxicity and (ii) effect on proliferation over 3 days.
(§3) On day −1, human dermal fibroblasts were seeded for (i) at high density (5×10^5/well) and for (ii) at low density (2.5×10^4/well).
(§4) On day 0, cultures were washed in PBS/g and exposed to the test agent diluted into PBS/g unless otherwise stated, for a test period (1-4 hr). Then the test agent was removed and culture medium replaced. For (i), cells were returned to maintenance medium (2% FBS/DMEM) followed by MTS/PMS reagent for two hours. For (ii), cells were returned to growth medium (10% FBS/DMEC) for three days. After this period, the growth medium was aspirated and replaced with maintenance medium (2% FBS/DMEM) followed by MTS/PMS reagent for two hours.
(§5) MTS colour change at 2 hours was measured as described hereinbefore.
(§6) Test agents were GTA and soaked scaffold supernatants (a), fibrinogen and fragment E Schiff base hydrolysate (b) and (c) and alginate (d).

human dermal fibroblasts [3] = assay: MTS assay, effect on proliferation over 3 days; assay type: cell-based; conditions: FIGS. 30 and 31
Experimental: as §1, §2, §3, §4, §5, §6

neutrophil CD18 = assay: Human neutrophil activation assay (CD18, FACS); assay type: cell-based; conditions: 1 hour at 37° C., FIGS. 36 and 37, read-out: ED50 neutrophil CD18 activation
Experimental: Dextran 70 and ACD were warmed to 37° C. in a water bath. 2.5 ml ACD was drawn into a 20 ml syringe. 10-15 ml of blood was drawn from a volunteer into the same syringe and inverted several times to mix. The needle was changed and 6-7 ml of Dextran 70 was drawn. Some air was drawn into the top of the syringe and mixed thoroughly by inverting the syringe several times. The syringe was turned upright, taped to the inside of a 37° C. water bath and left for approximately 1.5 hours to allow for erythrocytes to sediment, leaving a leukocyte-rich plasma upper layer.
The syringe was carefully removed from the water bath keeping upright and the top of the needle was bent through about 120°. A 15 ml polypropylene tube was placed under the tip of the needle and approximately half of the plasma was slowly removed (containing the leukocytes). The remainder of the plasma was removed into a second tube leaving the red blood cells in the syringe to be discarded. Each of the 15 ml tubes was topped up with PBS/g and inverted to mix.
The tubes were centrifuged at 1000 rpm for 10 minutes. The supernatant was removed using a 1 ml plastic pipette and the pellet was loosened. If the supernatant appeared cloudy then a check was performed under the microscope for remaining cells and centrifuged again if necessary. When the supernatant was clear it was discarded. […]

Compound: fibrinogen
- effect of cross-linking on cell adhesion (HPMEC): continuously increases adhesion

Compound: collagen
- effect of cross-linking on cell adhesion (HPMEC): biphasic effect

Compound: O=CCCCC=O [glutaraldehyde]
- LD50 for cells relative to the lowest cross-linking concentration used [1]: 5-10 times less
- toxicity (loss of cell viability) [1]: acute concentration-dependent toxicity
- acute LD50 on HDF cytotoxicity (human dermal fibroblasts [2]): 50 to 150 µM
- LD50 for proliferation (human dermal fibroblasts [3]): around 7 μM
- EC50 (neutrophil CD18): 150 to 500 µM

Compound: CCN=C=NCCCN(C)C.Cl [EDC, 1-(3-Dimethylamino-propyl)-3-ethyl-carbodiimide (EDC) HCl]
- LD50 for cells relative to the lowest cross-linking concentration used [1]: 5,000-10,000 times less
- toxicity (loss of cell viability) ([1]; 1 hr exposure, measured at 2, 14 and 20 hours, FIGS. 6-7): acute concentration-dependent toxicity

Reference: patent US8273372B2, “Extracellular matrix composition” (Restoration of Appearance & Function Trust, priority 2006, dated 2012)
